Calls of active or inactive are those of the source.
How the values were obtained:
[1] = molecular target: Photoreceptor-specific nuclear receptor (Homo sapiens, UniProt Q9Y5X4); type: functional, cell-based;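 also: CHO-S cells with Gal4-NCOR and VP16-NR2E3 two-hybrid luciferase reporter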
[2] = molecular target: T1, Low molecular weight phosphotyrosine protein phosphatase (Homo sapiens, UniProt P24666); type: functional; details: read-out: IC50_Mean
[3] = molecular target: T1, Low molecular weight phosphotyrosine protein phosphatase; type: functional; details: read-out: IC50_Mean; remark: listed apart in the source
Cytochrome P450 2C19 = Cytochrome P450 2C19 (Homo sapiens, UniProt P33261); experiment: Cytochrome panel assay with activity outcomes. Panel member name: p450-cyp2c19 Compounds with AC50 equal or less than 10 uM are considered active; type: functional; details: read-out: AC50
Cytochrome P450 2C19, sequence (P33261 whole entry): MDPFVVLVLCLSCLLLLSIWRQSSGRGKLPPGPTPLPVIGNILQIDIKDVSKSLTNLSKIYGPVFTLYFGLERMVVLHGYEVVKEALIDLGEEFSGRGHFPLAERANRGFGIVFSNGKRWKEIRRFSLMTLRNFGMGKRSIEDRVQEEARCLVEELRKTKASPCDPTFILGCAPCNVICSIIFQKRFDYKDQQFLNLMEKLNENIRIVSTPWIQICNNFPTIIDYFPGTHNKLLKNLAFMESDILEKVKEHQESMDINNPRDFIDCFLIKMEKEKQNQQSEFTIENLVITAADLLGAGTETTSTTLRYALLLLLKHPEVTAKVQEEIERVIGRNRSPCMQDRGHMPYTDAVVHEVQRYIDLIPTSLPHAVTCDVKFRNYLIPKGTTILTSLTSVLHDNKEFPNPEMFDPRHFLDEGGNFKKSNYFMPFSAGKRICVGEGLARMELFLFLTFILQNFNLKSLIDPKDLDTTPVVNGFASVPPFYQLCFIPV

[4] = molecular target: T2, Probable nicotinate-nucleotide adenylyltransferase (Staphylococcus aureus (strain N315), UniProt P65502); type: functional, Staphylococcus aureus subsp. aureus N315;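 as to IC50 Mean: confirmatory dose-response retesting of NadD inhibitor hits first found in an ultra-high-throughput screen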
T2 sequence (P65502 whole entry): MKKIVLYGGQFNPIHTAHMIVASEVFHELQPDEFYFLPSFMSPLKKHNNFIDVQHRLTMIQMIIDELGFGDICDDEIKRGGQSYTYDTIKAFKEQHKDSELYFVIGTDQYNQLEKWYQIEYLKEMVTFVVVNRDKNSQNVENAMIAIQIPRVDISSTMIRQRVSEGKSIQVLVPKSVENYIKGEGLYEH

[5] = molecular target: T2, Probable nicotinate-nucleotide adenylyltransferase; type: functional, Staphylococcus aureus subsp. aureus N315; details: read-out: IC50_Mean
[6] = molecular target: T3, Carboxy-terminal domain RNA polymerase II polypeptide A small phosphatase 1 (Homo sapiens, UniProt Q9GZU7); experiment: CTDSP1 inhibitors, concentration-response, biochemical, absorbance readout, ultra-high-throughput screen actives (AID 540297); type: functional
T3 sequence (Q9GZU7 whole entry): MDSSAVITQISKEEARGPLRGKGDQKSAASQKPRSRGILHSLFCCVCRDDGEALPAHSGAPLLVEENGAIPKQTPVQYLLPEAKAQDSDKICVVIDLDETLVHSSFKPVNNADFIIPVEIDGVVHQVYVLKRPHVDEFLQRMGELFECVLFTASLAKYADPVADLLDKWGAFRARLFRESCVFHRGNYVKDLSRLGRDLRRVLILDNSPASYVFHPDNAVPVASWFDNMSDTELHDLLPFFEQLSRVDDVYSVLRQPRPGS

Cytochrome P450 3A4 = Cytochrome P450 3A4 (Homo sapiens, UniProt P08684);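 also: CYP3A4 tested as one member of a cytochrome P450 panel screen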
Cytochrome P450 3A4, sequence (P08684 whole entry): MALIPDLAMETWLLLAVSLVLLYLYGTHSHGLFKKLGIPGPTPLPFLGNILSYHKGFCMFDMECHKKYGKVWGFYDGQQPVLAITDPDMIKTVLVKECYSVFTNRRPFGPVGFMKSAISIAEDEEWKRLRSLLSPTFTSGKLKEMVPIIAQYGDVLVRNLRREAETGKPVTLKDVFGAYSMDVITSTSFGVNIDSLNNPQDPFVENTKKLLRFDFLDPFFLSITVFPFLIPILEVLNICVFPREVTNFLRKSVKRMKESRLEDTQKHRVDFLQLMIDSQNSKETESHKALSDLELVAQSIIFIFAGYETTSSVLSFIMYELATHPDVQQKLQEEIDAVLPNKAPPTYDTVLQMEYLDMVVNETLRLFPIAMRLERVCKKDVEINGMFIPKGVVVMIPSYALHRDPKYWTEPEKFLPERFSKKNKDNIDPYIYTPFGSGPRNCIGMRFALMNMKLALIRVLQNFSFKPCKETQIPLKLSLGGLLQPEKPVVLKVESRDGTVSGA

[7] = bead-based luminescence quenchers, dual-tagged ARNT – biochemical, AlphaScreen, cherry-pick, artefact control for ARNT-TACC3 interaction inhibitor project, dose response (AID 651705); type: functional;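 also: AlphaScreen bead proximity signal that flags compounds interfering with the detection technology; potency reflects signal decrease which marks the compound as an assay artifact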
[8] = molecular target: T4, Adenosylmethionine-8-amino-7-oxononanoate aminotransferase (Mycobacterium tuberculosis, UniProt P9WQ81); experiment: Mycobacterium tuberculosis BioA enzyme inhibitor Measured in Biochemical System Using Plate Reader - 2163-02_Inhibitor_Dose_CherryPick_Activity.; type: functional, Mycobacterium tuberculosis UT205
T4 sequence (P9WQ81 whole entry): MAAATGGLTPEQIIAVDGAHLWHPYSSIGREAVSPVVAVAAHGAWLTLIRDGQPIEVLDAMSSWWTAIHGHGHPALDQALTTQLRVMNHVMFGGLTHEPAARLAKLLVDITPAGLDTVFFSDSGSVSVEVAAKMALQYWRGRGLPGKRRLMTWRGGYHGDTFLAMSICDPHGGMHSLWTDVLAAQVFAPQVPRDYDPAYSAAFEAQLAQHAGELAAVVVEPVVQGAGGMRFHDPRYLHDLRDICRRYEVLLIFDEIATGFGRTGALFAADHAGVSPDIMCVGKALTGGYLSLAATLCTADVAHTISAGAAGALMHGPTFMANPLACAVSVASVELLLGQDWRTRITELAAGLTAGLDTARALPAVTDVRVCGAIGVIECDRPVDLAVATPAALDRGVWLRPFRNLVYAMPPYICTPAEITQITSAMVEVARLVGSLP

[9] = HEK293 cell viability loss – plate reader, cherry-pick, cytotoxicity control, dose response (AID 651899); type: functional, cell-based
[10] = molecular target: T5, Corticotropin-releasing factor receptor 2/Corticotropin-releasing factor-binding protein (Homo sapiens, UniProt P24387+Q13324); experiment: activators of CRF receptor 2 with binding protein – uHTS hits, confirmation (AID 602473); type: functional; details: read-out: EC50_Mean
T5 sequence (Q13324 whole entry): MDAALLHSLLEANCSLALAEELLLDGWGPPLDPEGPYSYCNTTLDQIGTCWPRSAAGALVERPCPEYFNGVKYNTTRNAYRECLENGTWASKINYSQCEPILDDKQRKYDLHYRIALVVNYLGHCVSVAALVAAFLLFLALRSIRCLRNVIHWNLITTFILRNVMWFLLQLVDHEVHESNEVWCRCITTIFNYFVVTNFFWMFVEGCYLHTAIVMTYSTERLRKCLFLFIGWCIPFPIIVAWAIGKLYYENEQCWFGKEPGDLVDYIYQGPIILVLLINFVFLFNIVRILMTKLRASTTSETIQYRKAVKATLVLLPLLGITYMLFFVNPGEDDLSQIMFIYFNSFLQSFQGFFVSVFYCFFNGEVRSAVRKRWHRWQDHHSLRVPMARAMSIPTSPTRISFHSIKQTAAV
T5 sequence (P24387 whole entry): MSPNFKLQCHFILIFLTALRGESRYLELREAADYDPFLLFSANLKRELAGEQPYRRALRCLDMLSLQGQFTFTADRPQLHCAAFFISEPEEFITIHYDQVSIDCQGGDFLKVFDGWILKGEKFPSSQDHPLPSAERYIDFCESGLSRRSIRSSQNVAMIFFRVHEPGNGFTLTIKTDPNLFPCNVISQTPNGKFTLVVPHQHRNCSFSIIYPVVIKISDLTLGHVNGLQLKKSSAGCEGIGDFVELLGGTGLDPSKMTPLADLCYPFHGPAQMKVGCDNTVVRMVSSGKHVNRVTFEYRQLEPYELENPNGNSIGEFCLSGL

[11] = blockers of CRF-binding protein–CRF-R2 complex – cell-based, uHTS hits, 384-well, dose response (AID 651639); type: functional, Homo sapiens; details: read-out: IC50_Mean
[12] = molecular target: T5, Corticotropin-releasing factor receptor 2/Corticotropin-releasing factor-binding protein; experiment: Dose Response confirmation of uHTS hits for small molecule antagonists of the CRF-binding protein and CRF-R2 receptor complex.; type: functional; details: read-out: IC50_Mean
Protein Wnt-3a = Protein Wnt-3a (Mus musculus, UniProt P27467); experiment: antagonism of Wnt3a pathway luciferase reporter – Wnt-LIGHT cells, luminescence, selectivity assay for Gli-SUFU antagonist project, dose response (AID 651570); type: functional; details: read-out: IC50_Mean;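 also: Wnt-LIGHT reporter cells stimulated with conditioned medium from Wnt3a-producing cells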
Protein Wnt-3a, sequence (P27467 whole entry): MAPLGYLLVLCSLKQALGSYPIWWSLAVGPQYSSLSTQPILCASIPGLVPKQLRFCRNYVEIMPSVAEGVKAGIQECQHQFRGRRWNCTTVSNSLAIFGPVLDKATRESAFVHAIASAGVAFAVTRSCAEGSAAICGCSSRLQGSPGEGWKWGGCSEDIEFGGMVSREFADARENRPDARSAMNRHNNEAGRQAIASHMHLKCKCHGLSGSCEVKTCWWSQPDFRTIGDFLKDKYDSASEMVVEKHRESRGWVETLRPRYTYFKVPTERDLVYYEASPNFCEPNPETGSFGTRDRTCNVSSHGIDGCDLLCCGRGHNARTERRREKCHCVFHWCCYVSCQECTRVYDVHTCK

[13] = mammalian cell viability loss – Alamar Blue, dry powder, cytotoxicity control for antifungal single agent project, dose response (AID 602188); type: functional, cell-based
[14] = molecular target: T6, Apoptotic protease-activating factor 1 (Homo sapiens, UniProt O14727); experiment: SAR analysis of small molecule Activators of Apaf-1 in a Fluorescent assay.; type: functional; details: read-out: EC50_Mean;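 also: caspase-3 cleavage of fluorogenic Rh110 DEVD substrate downstream of apoptosome activation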
T6 sequence (O14727 whole entry): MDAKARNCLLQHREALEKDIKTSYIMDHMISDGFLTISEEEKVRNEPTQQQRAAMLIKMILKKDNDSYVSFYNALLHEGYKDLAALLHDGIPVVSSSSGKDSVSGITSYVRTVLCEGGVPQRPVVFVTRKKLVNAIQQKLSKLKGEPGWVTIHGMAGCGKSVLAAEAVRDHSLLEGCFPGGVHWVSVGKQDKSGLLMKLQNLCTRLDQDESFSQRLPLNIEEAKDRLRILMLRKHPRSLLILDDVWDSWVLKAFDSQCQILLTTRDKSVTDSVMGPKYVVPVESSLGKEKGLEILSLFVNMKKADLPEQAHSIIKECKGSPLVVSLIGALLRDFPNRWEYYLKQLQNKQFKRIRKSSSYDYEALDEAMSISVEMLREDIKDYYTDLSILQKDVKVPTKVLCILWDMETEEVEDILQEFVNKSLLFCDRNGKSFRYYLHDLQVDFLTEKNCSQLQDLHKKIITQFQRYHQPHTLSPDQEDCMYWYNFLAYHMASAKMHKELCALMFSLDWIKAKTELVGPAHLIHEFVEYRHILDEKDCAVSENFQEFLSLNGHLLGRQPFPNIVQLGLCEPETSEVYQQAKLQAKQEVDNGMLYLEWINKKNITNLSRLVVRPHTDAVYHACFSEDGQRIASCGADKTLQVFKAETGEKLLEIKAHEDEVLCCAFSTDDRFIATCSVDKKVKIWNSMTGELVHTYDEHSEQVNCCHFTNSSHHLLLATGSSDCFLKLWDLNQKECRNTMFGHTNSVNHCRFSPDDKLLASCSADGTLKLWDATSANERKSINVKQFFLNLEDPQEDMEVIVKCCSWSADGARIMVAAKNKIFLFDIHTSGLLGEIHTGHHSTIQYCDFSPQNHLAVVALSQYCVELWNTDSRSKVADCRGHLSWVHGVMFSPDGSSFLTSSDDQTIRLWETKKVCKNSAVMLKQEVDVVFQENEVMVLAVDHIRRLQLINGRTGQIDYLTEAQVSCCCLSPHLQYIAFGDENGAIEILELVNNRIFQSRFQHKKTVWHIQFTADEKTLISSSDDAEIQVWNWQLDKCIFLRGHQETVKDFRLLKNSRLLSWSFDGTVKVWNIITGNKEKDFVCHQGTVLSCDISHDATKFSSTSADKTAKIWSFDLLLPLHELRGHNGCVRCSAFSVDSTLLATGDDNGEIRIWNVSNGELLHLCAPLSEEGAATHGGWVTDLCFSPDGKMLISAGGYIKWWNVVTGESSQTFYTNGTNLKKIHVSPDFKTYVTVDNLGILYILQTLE

[15] = molecular target: Hepatocyte nuclear factor 4-alpha (Homo sapiens, UniProt P41235); type: functional, cell-based;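 also: biochemical luminescence-based dose-response counterscreen measuring inhibition of HNF4 dimerization, run alongside a screen for blockers of ABHD5–perilipin-5 interaction; split luciferase complementation of HNF4 fusion proteins in cell lysate measuring dimerization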
Hepatocyte nuclear factor 4-alpha, sequence (P41235 whole entry, the tested form may be a part): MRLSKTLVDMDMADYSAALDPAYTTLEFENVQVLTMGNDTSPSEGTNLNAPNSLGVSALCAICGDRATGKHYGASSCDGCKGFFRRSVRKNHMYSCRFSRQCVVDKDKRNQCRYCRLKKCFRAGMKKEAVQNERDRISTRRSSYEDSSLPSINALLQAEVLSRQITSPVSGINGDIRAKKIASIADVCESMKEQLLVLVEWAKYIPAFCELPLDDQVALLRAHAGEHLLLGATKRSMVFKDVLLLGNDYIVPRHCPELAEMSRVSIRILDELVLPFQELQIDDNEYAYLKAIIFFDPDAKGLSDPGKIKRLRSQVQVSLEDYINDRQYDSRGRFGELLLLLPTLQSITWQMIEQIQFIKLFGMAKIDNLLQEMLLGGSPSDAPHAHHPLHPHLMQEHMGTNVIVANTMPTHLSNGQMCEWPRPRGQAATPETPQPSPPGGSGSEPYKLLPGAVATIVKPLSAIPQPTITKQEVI

[16] = molecular target: T7, Rac GTPase-activating protein 1 (Homo sapiens, UniProt Q9H0H5); experiment: blockers of MgcRacGAP-driven Rac1 GTP hydrolysis – biochemical, ADP Hunter fluorescence, primary and confirmatory, confirmation (AID 624330); type: functional
T7 sequence (Q9H0H5 whole entry): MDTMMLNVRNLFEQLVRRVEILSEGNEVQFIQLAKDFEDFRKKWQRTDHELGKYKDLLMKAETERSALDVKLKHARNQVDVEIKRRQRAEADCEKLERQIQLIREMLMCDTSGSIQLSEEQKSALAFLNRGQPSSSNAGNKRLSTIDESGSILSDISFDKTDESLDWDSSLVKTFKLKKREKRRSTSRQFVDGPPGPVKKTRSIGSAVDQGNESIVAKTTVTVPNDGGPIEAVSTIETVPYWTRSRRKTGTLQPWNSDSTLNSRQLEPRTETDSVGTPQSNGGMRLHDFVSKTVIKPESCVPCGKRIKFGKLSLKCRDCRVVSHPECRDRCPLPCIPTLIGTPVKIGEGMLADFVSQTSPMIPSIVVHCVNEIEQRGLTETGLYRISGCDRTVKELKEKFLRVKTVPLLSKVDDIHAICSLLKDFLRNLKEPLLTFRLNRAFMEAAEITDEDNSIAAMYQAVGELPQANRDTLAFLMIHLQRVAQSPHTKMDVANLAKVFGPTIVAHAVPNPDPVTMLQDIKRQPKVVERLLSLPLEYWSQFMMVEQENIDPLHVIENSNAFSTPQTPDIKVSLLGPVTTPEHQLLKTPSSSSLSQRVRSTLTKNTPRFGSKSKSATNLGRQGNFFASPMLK

[17] = rise of 4N DNA cells, HeLa – IC50, dose response (AID 1117351); type: functional, cell-based
[18] = molecular target: T8, DNA repair protein RAD52 homolog (Homo sapiens, UniProt P43351); type: functional, biochemical
T8 sequence (P43351 whole entry): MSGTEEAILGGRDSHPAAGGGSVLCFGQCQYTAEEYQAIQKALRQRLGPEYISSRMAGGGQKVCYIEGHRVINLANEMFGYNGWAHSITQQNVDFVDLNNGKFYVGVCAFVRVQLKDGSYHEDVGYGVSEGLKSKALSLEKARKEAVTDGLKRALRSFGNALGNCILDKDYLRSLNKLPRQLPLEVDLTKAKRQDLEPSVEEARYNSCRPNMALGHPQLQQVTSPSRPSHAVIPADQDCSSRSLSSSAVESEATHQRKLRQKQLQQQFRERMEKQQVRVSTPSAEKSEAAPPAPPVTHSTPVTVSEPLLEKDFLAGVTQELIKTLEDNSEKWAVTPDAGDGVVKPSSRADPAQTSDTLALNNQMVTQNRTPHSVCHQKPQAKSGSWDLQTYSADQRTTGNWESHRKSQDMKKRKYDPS

[19] = molecular target: DNA repair and recombination protein RAD54-like (Homo sapiens, UniProt Q92698); experiment: RAD54 Holliday junction migration blockers – biochemical, fluorescence, cherry-picked samples, dose series, confirmation (AID 651657); type: functional
DNA repair and recombination protein RAD54-like, sequence (Q92698 whole entry): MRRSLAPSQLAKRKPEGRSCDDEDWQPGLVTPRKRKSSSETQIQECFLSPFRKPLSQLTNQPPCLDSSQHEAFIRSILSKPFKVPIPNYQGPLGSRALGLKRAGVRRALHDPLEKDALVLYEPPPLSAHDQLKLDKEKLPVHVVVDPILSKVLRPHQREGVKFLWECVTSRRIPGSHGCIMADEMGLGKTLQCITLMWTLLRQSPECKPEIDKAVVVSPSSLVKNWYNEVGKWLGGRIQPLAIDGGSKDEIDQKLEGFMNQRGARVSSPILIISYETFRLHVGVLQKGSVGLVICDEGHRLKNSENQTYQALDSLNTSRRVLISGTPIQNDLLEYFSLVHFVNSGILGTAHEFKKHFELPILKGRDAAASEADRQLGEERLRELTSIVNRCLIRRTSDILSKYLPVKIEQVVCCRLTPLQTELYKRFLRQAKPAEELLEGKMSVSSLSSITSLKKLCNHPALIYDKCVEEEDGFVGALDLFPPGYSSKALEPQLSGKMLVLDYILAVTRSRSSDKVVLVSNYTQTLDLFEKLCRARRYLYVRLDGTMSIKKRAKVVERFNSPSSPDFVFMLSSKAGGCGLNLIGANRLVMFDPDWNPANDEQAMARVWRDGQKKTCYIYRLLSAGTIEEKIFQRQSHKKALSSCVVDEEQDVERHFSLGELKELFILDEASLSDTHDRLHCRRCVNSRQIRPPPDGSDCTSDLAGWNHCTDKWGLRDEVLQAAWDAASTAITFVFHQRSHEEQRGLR

[20] = rise of 2N DNA cells, HeLa – IC50, dose response (AID 1117349); type: functional, cell-based

T1 sequence (P24666 whole entry): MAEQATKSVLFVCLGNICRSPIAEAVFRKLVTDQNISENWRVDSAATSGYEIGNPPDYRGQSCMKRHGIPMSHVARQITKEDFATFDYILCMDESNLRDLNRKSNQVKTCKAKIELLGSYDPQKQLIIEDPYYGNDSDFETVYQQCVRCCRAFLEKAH
Photoreceptor-specific nuclear receptor, sequence (Q9Y5X4 whole entry, the tested form may be a part): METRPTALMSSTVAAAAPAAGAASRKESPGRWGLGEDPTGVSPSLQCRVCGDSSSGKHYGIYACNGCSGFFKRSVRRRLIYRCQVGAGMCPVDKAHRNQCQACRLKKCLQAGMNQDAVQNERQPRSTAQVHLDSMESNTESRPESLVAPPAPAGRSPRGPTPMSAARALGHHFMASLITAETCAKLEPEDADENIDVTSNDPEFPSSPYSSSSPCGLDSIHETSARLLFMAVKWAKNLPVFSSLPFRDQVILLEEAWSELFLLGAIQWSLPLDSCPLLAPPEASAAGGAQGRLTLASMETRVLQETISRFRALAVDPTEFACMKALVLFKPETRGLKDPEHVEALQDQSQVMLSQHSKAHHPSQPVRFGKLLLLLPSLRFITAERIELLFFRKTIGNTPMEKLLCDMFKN

With `Cc1cnc(NC(=O)Cc2ccc(Br)cc2)s1` the IC50 [1] was 1.15 µM (active).
For `Cc1ccc(C(=O)NNC(=O)c2cc3cc4ccccc4nc3s2)cc1`, the IC50 [2] was 52.9 µM (inactive), the IC50 [3] was 12.8 µM (active) and the AC50 (Cytochrome P450 2C19) was 39.8 µM (inconclusive). For the same compound, the IC50 [4] was 12.1 µM (active), the IC50 [5] was 27.3 µM (active) and the IC50 [6] was 4.33 µM (active). The AC50 (Cytochrome P450 3A4) was 4.47 µM (inconclusive).
In the case of `CC(=O)[C@H]1[C@@H]2C(=O)N(c3cccc(Cl)c3)C(=O)[C@@H]2[C@H]2c3ccccc3C=CN21`, the AC50 [7] is reported as 122 µM (active).
With `COc1ccc(-c2[nH]nc3c2CN(C(=O)c2ccc(OC)c(OC)c2)CC3)cc1` the AC50 [8] was 0.912 µM (active) and the AC50 [9] was 25.6 µM (active).
In the case of `COc1ccccc1-c1c(C)nn2c(N3CCN(c4ccccc4OC)CC3)cc(C)nc12`, the EC50 [10] is reported as > 53 µM (inactive), the IC50 [11] is reported as > 20 µM (inactive) and the IC50 [12] is reported as 12.9 µM (active).
In the case of `O=C(N[C@@H]1C/C=C\C[C@H](CC(=O)N(CCO)Cc2ccccc2)C(=O)N[C@@H](Cc2c[nH]c3ccccc23)COC1=O)OCC1c2ccccc2-c2ccccc21`, the IC50 (Protein Wnt-3a) is reported as 8.54 µM (active).
For `Oc1c(C(c2ccc(Cl)cc2)N2CCCC2)ccc2cccnc12` (stereo not drawn), the AC50 [13] was 1.71 µM (active).
In the case of `O=C(O)c1coc(-c2cc3ccccc3s2)n1`, the EC50 [14] is reported as > 100 µM (inactive).
For `CC1(C)C2CCC(CN=C(N)CSS(=O)(=O)O)C1C2` (stereo not drawn), the IC50 [15] was 4.45 µM (active) and the IC50 [16] was 65.3 µM (active).
For `CCN(CC)CCNc1ccc(CO)c2sc3ccccc3c(=O)c12` [HYCANTHONE], the IC50 [17] was > 10 µM (inactive), the AC50 [18] was 9.33 µM (active) and the AC50 [19] was 6.95 µM (active). For the same compound, the IC50 [20] was 5.68 µM (inactive).

Reference: ChEMBL document CHEMBL1201862, “PubChem BioAssay data set” (2004)
